Test: xn = mol fraction of the nth substance listed, in the solute-free solvent

Cc1c(Br)cccc1C(=O)O + CN(C)C=O + O
solubility (g/100 g solution)
Conditions | x2 = 0.039 | x2 = 0.091 | x2 = 0.16 | x2 = 0.259 | x2 = 0.411 | x2 = 0.677
278.15 K | 5.54 | 9.19 | 12.7 | 16.1 | 19.4 | 22.9
283.15 K | 8.07 | 11.1 | 15.1 | 18.9 | 22.7 | 26.7
288.15 K | 6.03 | 11.5 | 16.6 | 21.4 | 26 | 30.7
293.15 K | 9.6 | 15.3 | 20.6 | 25.5 | 30.3 | 35.3
298.15 K | 11.6 | 18.1 | 23.9 | 29.3 | 34.6 | 40.1
303.15 K | 13.8 | 21 | 27.5 | 33.4 | 39.2 | 45.3
308.15 K | 16 | 24.1 | 31.1 | 37.6 | 43.8 | 50.5
313.15 K | 18.6 | 27.5 | 35.2 | 42.1 | 48.7 | 55.9
318.15 K | 21.6 | 31.2 | 39.4 | 46.6 | 53.5 | 61.2
323.15 K | 24.4 | 35 | 43.7 | 51.3 | 58.6 | 66.8
328.15 K | 27.9 | 39 | 48.1 | 55.9 | 63.4 | 72

Nc1nccnc1Cl + CN(C)C=O + O
solubility (g/100 g solution)
Conditions | 278.15 K | 283.15 K | 288.15 K | 293.15 K | 298.15 K | 303.15 K | 308.15 K | 313.15 K | 318.15 K | 323.15 K
x2 = 0.02666 | 0.123 | 0.162 | 0.208 | 0.257 | 0.308 | 0.359 | 0.41 | 0.469 | 0.522 | 0.579
x2 = 0.05806 | 0.379 | 0.491 | 0.623 | 0.761 | 0.903 | 1.04 | 1.18 | 1.34 | 1.47 | 1.62
x2 = 0.09556 | 0.721 | 0.929 | 1.17 | 1.43 | 1.69 | 1.95 | 2.2 | 2.48 | 2.72 | 2.98
x2 = 0.1412 | 1.01 | 1.3 | 1.64 | 2.01 | 2.38 | 2.75 | 3.11 | 3.5 | 3.86 | 4.23
x2 = 0.1978 | 1.14 | 1.5 | 1.9 | 2.35 | 2.8 | 3.27 | 3.75 | 4.24 | 4.69 | 5.16
x2 = 0.27 | 1.26 | 1.69 | 2.14 | 2.67 | 3.17 | 3.72 | 4.29 | 4.84 | 5.41 | 6.03
x2 = 0.3652 | 1.38 | 1.82 | 2.33 | 2.93 | 3.56 | 4.17 | 4.81 | 5.48 | 6.15 | 6.86
x2 = 0.4965 | 1.5 | 2.02 | 2.55 | 3.24 | 3.93 | 4.64 | 5.37 | 6.21 | 7 | 7.83
x2 = 0.6893 | 1.59 | 2.12 | 2.72 | 3.45 | 4.22 | 5.01 | 5.87 | 6.75 | 7.69 | 8.67
